Reference: patent publication US20090030055A1, “PKC activation as a means for enhancing s[sequence] secretion and improving cognition using bryostatin type compounds” (priority 2002, published 2009)

Experiments:
[1] = system: sAPP secretion, control fibroblasts; conditions: cited from earlier work
[2] = system: sAPP secretion, AD fibroblasts; conditions: benzolactam-treated cells; cited from earlier work
[3] = system: Transgenic mice carrying the V7171 mutation; assay: Transgenic mice carrying the V7171 APP mutation, APP species in brain and health; format: in vivo; conditions: for deaths: 5-6 months old animals
Procedure: Transgenic mice carrying the V7171 mutation were treated with BL (1 mg/kg, i.p.; daily) from […] of age (after weaning) for 17 weeks (n=4). The control group (n=4) received vehicle alone (Tween 20 1%, DMSO 25%, 74% PBS). Another experimental group consisted of 5-6 months old animals treated for 7 weeks. Subgroups of these animals were treated with BL 1 mg/kg, daily (n=5); BL 10 mg/kg, daily (n=3; due to two deaths); BL 10 mg/kg, weekly (n=4; one death), LQ12 10 mg/kg, daily (n=5); and LQ12 10 mg/kg, weekly (n=5). Five additional animals received vehicle alone for the same period. After completion of the treatment, animals were euthanized according to K.U.L. (Belgium) guidelines. Brains were removed and prepared for biochemical analyses of APP species.
Immunoblot analysis. The biochemical analysis of intermediates of APP metabolism has been described elsewhere by Dewachter et al. (Aging increased amyloid peptide and caused amyloid plaques in brain of old APP/V7171 transgenic mice by a different mechanism than mutant presenilinl. J. Neurosci. 2000; 20:6452-8.). Briefly, brains were homogenized in 6.5 vol. of ice-cold buffer containing 20 mm Tris-HCl, pH 8.5, and a mixture of proteinase inhibitors (Roche, Darmstadt, Germany). After centrifugation at 135,000×g at 4° C. for 1 hr, the supernatant was centrifuged again for 2 hr at 200,000×g before analysis of soluble amyloid peptides by specified ELISA. The pellets from the first centrifugation were resuspended in TBS containing 2% Triton X-100, 2% Nonidet P40 and proteinase inhibitors and centrifuged at 100.000×g at 4° C. for 1 hr. This protein fraction was used for analysis of membrane-bound APP. Western blotting of membrane bound APP was performed on this protein fraction containing membrane-bound proteins, with monoclonal antibody 8E5. Total secreted APP and a-secretase cleaved secreted APP-a were detected by Western blotting analysis on the supernatant of the first centrifugation, with monoclonal antibody 8E5 and monoclonal antibody JRF14, respectively. Proteins were denatured and reduced in sample buffer containing a final concentration of 2% SDS, 1% 2-ME and separated on 8% TRIS Glycine gels (Novex, San Diego, Calif.). After incubation with appropriate secondary antibodies, all Western blots were developed with the ECL detection system and photographically recorded. Application of a series of diluted sample allowed quantitation. Densitometric scanning of films and normalization were performed using a flatbed optical density scanner and dedicated software for analysis and measurement (Image Master; Pharmacia, Uppsala, Sweden).
ELISA of amyloid peptides. Protein extracts were applied on reversed-phase columns (C18-Sep-pack cartridges; Waters Corporation, Milford, Mass.) and washed with increasing concentrations of acetonitrile (5, 25, and 50%) containing 0.1% trifluoroacetic acid. The last fraction contained the amyloid peptides and was dried in vacuo overnight and dissolved for measurements in ELISA. Sandwich ELISA for human […] peptides was performed using the capture antiserum JRF/cAβ40/10 and 21F12, respectively, and they were developed with monoclonal antibodies JRFcAβ/tot/14 hrpo and 3D6, respectively (Vanderstichele H, Van Kerschaver E, Hese C, Davidsson P, Buyse M A, Andreansen N, Minthon L, Wallin A, Blennow K, Vanmechelen E. Standardization of measurements of beta-amyloid (1-42) in cerebrospinal fluid and plasma. Amyloid 2000; 7: 245-258).
Standard general health assessment and open field were conducted in all animals prior to the biochemical assessments. In addition, a semi-quantitative ad hoc score was devised to measure abdominal contractions that followed the injections (+=weak, <2 min; […]).

[4] = system: sAPPα secretion, AD cell line AG06848; assay: sAPPα secretion immunoblot, AD fibroblasts; format: cell-based, human; conditions: AD cell line AG06848; 0.1 nM; three hours of treatment; relative to DMSO
Procedure: Cultured skin fibroblasts were obtained from the Coriell Cell Repositories and grown using the general guidelines established for their culture with slight modifications (Cristofalo & Carpentier, 1988; Hirashima et al., 1996). The culture medium in which cells were grown was Dulbecco's modified Eagle's medium (GIBCO) supplemented with 10% fetal calf serum (Biofluids, Inc.). Fibroblasts from control cell lines (AC), cases AG07141 and AG06241, and a familial AD (FAD) case (AG06848) were utilized.
Cells grown to confluence in 6 cm Petri dishes for 5-7 days. On the day of the experiment, medium was replaced with DMEM without serum and left undisturbed for 2 h. Upon completion of the 2 hour serum deprivation; treatment was achieved by direct application to the medium of Bryo, BL and DMSO at the appropriate concentrations. (0.1 and 0.01 nM for bryostatin; 0.1 nM, 0.1 μM, and 1 μM BL). DMSO was less than 1% in all cases. In most cases, medium was collected and processed after 3 hours of treatment for sAPP secretion. Other time points were also used to establish a time course of secretion.
sAPP—Determinations/Measurements of sAPPα
The concentration of secreted APP was measured using conventional immunoblotting techniques, with minor modifications the protocol. Precipitated protein extracts from each dish/treatment were loaded to freshly prepared 10% acrylamide Tris-HCl minigels and separated by SDPAGE. The volume of sample loaded was corrected for total cell protein per dish. Proteins were then electrophoretically transferred to PVDF membranes. Membranes were saturated with 5% non-fat dry milk to block non-specific binding. Blocked membranes were incubated overnight at 4° C. with the commercially available antibody 6E10 (1:500), which recognizes sAPP-alpha in the conditioned medium (SENETEK). After washing, the membranes were incubated at room temperature with horseradish peroxidase conjugated anti-mouse IgG secondary antibody (Jackson's Laboratories). The signal was then detected using enhanced chemiluminescence followed by exposure of Hyperfilm ECL (Amersham). The band intensities were quantified by densitometry using a BioRad GS-800 calibrated scanning densitometer and Multianalyst software (BioRad).

[5] = 1 mg/kg i.p. daily from 3 weeks of age for 17 weeks
[6] = 1 mg/kg i.p. daily from 3 weeks of age for 17 weeks, vs vehicle
[7] = 6 months old animals, 7 weeks, 10 mg/kg daily
[8] = 6 months old animals, 7 weeks, 10 mg/kg weekly

In the case of `CCCCCCCCC#Cc1ccc2c(c1)C[C@@H](CO)NC(=O)[C@H](C(C)C)N2C` [BL, benzolactam], the “concentration giving significant increases of sAPP secretion” value [1] is listed as 10 µM, the “sAPP secretion in AD cells compared to control fibroblasts” value [2] is listed as “slightly higher” and the APP membrane-bound [3, 5] is listed as “no differences”. The “amount of Aβ42” value [3, 5] was “no differences”, the “total secreted sAPP (sAPPα+sAPPβ)” value [3, 5] was “no differences” and the Aβ40 in brain [3, 6] was “concomitant and proportional reduction”. The sAPPα in brain [3, 6] was “significant increase”, the general health ([3]; 1 mg/kg i.p. daily, 17 weeks) was “no differences in general health” and the “intensity of abdominal contractions after injection” value ([3]; 1 mg/kg i.p. daily, 17 weeks, vs vehicle group) was “somewhat elevated”. The deaths ([3]; 7 weeks, 10 mg/kg daily) was “two deaths”, the deaths ([3]; 7 weeks, 10 mg/kg weekly) was “one death” and the sAPPα in brain ([3]; 6 months old animals, 7 weeks, 1 mg/kg daily) was “no effect”. For the same compound, the Aβ40 in brain [3, 7] was “increase”, the sAPPα in brain [3, 7] was “slight increase” and the Aβ40 in brain [3, 8] was “slight decrease”. For the same compound, the sAPPα in brain [3, 8] was “slight increase” and the “secretion of sAPPα” value [4] was “no real impact on secretion”.
